{"source": "ChEMBL document CHEMBL5390323", "about": "“Novel IRAK4 Inhibitors for Treating Asthma, COPD, Cancer, Autoinflammatory Diseases, and Autoimmune Diseases” (ACS Med Chem Lett, 2023)", "target": "T1, Interleukin-1 receptor-associated kinase 4 (Homo sapiens, UniProt Q9NWZ3)", "T1 sequence (Q9NWZ3 whole entry)": "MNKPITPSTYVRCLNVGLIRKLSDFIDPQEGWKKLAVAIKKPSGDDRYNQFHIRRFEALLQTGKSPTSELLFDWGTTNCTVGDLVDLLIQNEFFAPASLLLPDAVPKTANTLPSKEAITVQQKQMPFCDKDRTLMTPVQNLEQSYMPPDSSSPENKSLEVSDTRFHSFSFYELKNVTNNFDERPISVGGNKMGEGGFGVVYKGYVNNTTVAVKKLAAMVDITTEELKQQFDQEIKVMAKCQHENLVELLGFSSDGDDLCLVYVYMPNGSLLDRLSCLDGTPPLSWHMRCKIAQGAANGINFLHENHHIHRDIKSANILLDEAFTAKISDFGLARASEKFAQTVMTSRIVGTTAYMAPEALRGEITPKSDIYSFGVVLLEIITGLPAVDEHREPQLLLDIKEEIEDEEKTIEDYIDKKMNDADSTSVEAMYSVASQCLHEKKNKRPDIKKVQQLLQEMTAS", "experiment": "Inhibition of recombinant human full length his-tagged IRAK4 expressed in insect cells using KKARFSRFAGSSPSQSSMVAR as peptide substrate preincubated for 15 mins followed by substrate addition and measured after 2 hrs in presence of ATP by LC-MS/MS analysis"}
{"smiles": "COc1cc2nn([C@H]3CC[C@H](n4ccnc4C(C)O)CC3)cc2cc1C(=O)Nc1cccn(C)c1=O", "note": "(stereo partly specified)", "values": [{"measurement": "IC50", "result": 500, "unit": "pM"}]}
